Reference: paper PMC4267740, “Unprecedented Therapeutic Potential with a Combination of A2A/NR2B Receptor Antagonists as Observed in the 6-OHDA Lesioned Rat Model of Parkinson's Disease” (PLoS ONE, 2014)
Entries after “also recorded” stand apart in the source; their conditions may differ. Read-outs that look alike come from different tables or passages of the source.

How the values were obtained:
[1] = Plasma and brain exposure in satellite lesioned rats; assay type: in vivo, rat; settings: rat, mean ± SD; for concentration at 90 min: ip, 3 mg/kg, 90 min after dosing; for concentration at 60 min: po, 30 mg/kg, 60 min after dosing
Procedure: Satellite lesioned rats (400–450 g) were anesthetized with isoflurane and sacrificed by exsanguination. Blood samples were collected in EDTA centrifuged 10 min at 3000 rpm at 4°C to obtain plasma and stored at −20°C prior the analysis. Brains were perfused by saline collected and immediately stored at −20°C prior the analysis. Brain samples were added to 4 volumes of water before being homogenized. A structural analog compound was added as internal standard to the samples and proteins were crashed using 8 volumes of acetonitrile. Compounds were analyzed on an API5000 mass spectrometer (ABSciex, Framingham, MA, USA.) equipped with a turbo ion spray source and interfaced with an Agilent 1290 Infinity LC system (Agilent Technologies, Waldbroon, Germany). The mass spectrometer was operated in the positive ionization mode with Multiple Reactions Monitoring used to quantify the various analytes (407 to 292 for Tozadenant; 398 to 109 for Radiprodil, 346 to 105 for Sch-58261 and 342 to 100 for Co-101244). A Waters HSS T3 column (2.1×30 mm, 1.8 µm) was used. The mobile phase consisted of 100% water with 0.1% formic acid (phase A) and 100% acetonitrile with 0.1% formic acid (phase B). The flow rate was 1 mL/min. A linear gradient was performed from 0 to 1 min (95 to 30% phase A), a jump to 90% B in 0.01 min, a hold period of 1.29 min at 90% phase B followed by equilibration at the initial condition was applied before the following injection.
(§1) Before undertaking the study, each A2A and NR2B antagonist was tested individually. The doses were selected on the basis of preliminary dose-response curves performed separately for each drug and submaximal dose (i.e. response observed is not at its maximal level) of each drug was selected for the combination studies. The two drugs were administered separately via an intraperitoneal (ip) injection with a 2-minute interval between the two drugs. Five minutes after the second injection, animals were placed in the testing cage for behavioural recording. Due to formulation and exposure issues, Tozadenant and Radiprodil had to be administered orally and therefore recording was started 60 minutes post dosing at this corresponds to maximum plasma concentrations. Eight drug-naïve animals were used for each of the four procedures; 32 in total for each combination. All behavioral experiments were conducted between 8.00 AM and 2.00 PM at the latest. Preliminary pharmacokinetic assays investigated the plasma and brain disposition of selected drugs administered alone or in combination (ie. Tozadenant/Radiprodil, and Sch-58261/Co-101244; 3 animals per group). Tozadenant and Radiprodil were measured in samples obtained 60 minutes after single oral administration at 30 mg/kg. Sch-58261 and Co-101244 were measured in samples collected 90 min after single intraperitoneal administration at 3 mg/kg.

[2] = tested on: unilateral 6-OHDA-lesioned rats; assay: Rearing counts in actometers, monotherapy (without L-Dopa); assay type: in vivo, rat
Procedure: To protect norepinephrinergic neurons, animals were administered imipramine HCl (Sigma) 15 minutes before surgery. They were subsequently anesthetized with ketamine (Ceva, 75 mg/kg) and xylazine (Bayer, 10 mg/kg) and placed in stereotaxic frame (David Kopf Instrument). 6-OHDA was injected into the right ascending medial forebrain bundle at the following coordinates (in mm) relative to bregma and surface of the dura, AP = −3.5, ML = −1.5, DV = −8.7. Each rat received one injection of 6-OHDA (4 µg/µl) over a period of 5 minutes (0.5 µl/min) for a total of 10 µg per rat. Animals were monitored for 3 weeks to ensure full recovery and habituation to the environment and experimenters.
On day 21 post surgery, all rats were challenged with a small dose of subcutaneously administered apomorphine (Sigma, 0.05 mg/kg). Rats showing more than 90 contralateral rotations (360°) over a 45-minute recording period were included in the study. […] For each experiment, rats were allocated to the different experimental groups in order to get the same mean level of basal activity measured at the apomorphine challenge amongst the different experimental groups.
Drug-naïve separate rats were tested individually in clear acrylic chambers (LE8811 IR, Panlab). Locomotion was detected and measured by 16 infrared light-beam sensors located on each side of the enclosure at a height of 3 cm. Sensors were spaced such that the light beams formed a matrix of 15×15 squares over the surface. Activity counts were recorded on a computer and Acti-Track software (Actitrack, Panlab) was used to convert raw data into “distance traveled” and “rearing counts” for analysis as relevant dependent variables.
Six different combinations of A2A/NR2B antagonists were tested without L-Dopa. For each combination, there were four different procedures: vehicle only; A2A antagonist followed by vehicle; vehicle followed by the NR2B antagonist and A2A antagonist followed by the NR2B antagonist. The drugs, doses and combinations are described in Table 3. After drug administration, rats were placed in actometers (open-field) for monitoring the general level of motor activity (distance traveled and rearing counts).
as §1
The effects of A2A and NR2B antagonists on the level of motor activity (i.e. distance traveled and rearing counts) were assessed with three-way mixed ANOVA, combining the A2A receptor antagonist (2 levels, vehicle and the A2A drug) and the NR2B antagonist (2 levels, vehicle and the NR2B drug) as between-group factors with the time as within-subjects factor (6 or 9 levels). […]

[3] = Sch-58261 1 mg/kg ip, Co-101244 1 mg/kg ip
[4] = Sch-58261 1 mg/kg ip, Merck 22 1 mg/kg ip
[5] = brain, administered alone, oral 30 mg/kg, expressed per g tissue, 3 animals, read-out: Brain concentration
[6] = brain, administered in combination Tozadenant + Radiprodil, both oral 30 mg/kg, expressed per g tissue, 3 animals, read-out: Brain concentration
[7] = plasma, administered alone, oral 30 mg/kg, 3 animals, read-out: Plasma concentration
[8] = plasma, administered in combination Tozadenant + Radiprodil, both oral 30 mg/kg, 3 animals, read-out: Plasma concentration
[9] = Preladenant 0.1 mg/kg ip, Radiprodil 1 mg/kg ip
[10] = Tozadenant 30 mg/kg po, Radiprodil 3 mg/kg po

| concentration at 60 min [1, 5] | concentration at 60 min [1, 6] | concentration at 60 min [1, 7] | concentration at 60 min [1, 8] | SMILES | Rearing counts, drugs alone vs vehicle, p (Newman-Keuls) [2, 10] | Rearing counts, drugs main effect, p (three-way mixed ANOVA) [2, 10] | Rearing counts, drugs × time effect, p (three-way mixed ANOVA) [2, 10] | further results |
| --- | --- | --- | --- | --- | --- | --- | --- | --- |
| – | – | – | – | Nc1nc2c(cnn2CCc2ccccc2)c2nc(-c3ccco3)nn12 [Sch-58261] | – | – | – | concentration at 90 min ([1]; brain, administered alone, ip 3 mg/kg, expressed per g tissue, 3 animals (Co-101244 n = 2), read-out: Brain concentration): 246 ± 34.7 ng/mL; concentration at 90 min ([1]; brain, administered in combination Sch-58261+Co-101244, both ip 3 mg/kg, expressed per g tissue, 3 animals, read-out: Brain concentration): 264 ± 38.3 ng/mL; concentration at 90 min ([1]; plasma, administered alone, ip 3 mg/kg, 3 animals (Co-101244 n = 2), read-out: Plasma concentration): 97.2 ± 10.1 ng/mL; concentration at 90 min ([1]; plasma, administered in combination Sch-58261+Co-101244, both ip 3 mg/kg, 3 animals, read-out: Plasma concentration): 112 ± 4.16 ng/mL; Rearing counts, drugs alone vs vehicle, p (Newman-Keuls) [2, 3]: Both p<0.05; Rearing counts, drugs main effect, p (three-way mixed ANOVA) [2, 3]: p<0.001; Rearing counts, drugs × time effect, p (three-way mixed ANOVA) [2, 3]: p<0.001; Rearing counts, drugs alone vs vehicle, p (Newman-Keuls) [2, 4]: Sch-58261 p<0.05; Rearing counts, drugs main effect, p (three-way mixed ANOVA) [2, 4]: p<0.001; Rearing counts, drugs × time effect, p (three-way mixed ANOVA) [2, 4]: p<0.001 |
| 2630 ± 560 ng/mL | 2590 ± 2480 ng/mL | 4960 ± 850 ng/mL | 5590 ± 2930 ng/mL | O=C(Nc1ccc2[nH]c(=O)oc2c1)C(=O)N1CCC(Cc2ccc(F)cc2)CC1 [Radiprodil] | Not significant | p<0.01 | p<0.001 | Rearing counts, drugs alone vs vehicle, p (Newman-Keuls) [2, 9]: Radiprodil, not significant; Rearing counts, drugs main effect, p (three-way mixed ANOVA) [2, 9]: p<0.001; Rearing counts, drugs × time effect, p (three-way mixed ANOVA) [2, 9]: p<0.01; Rearing counts, drug alone in comparison to vehicle rats ([2]; drug administered alone): not |
| 180 ± 40 ng/mL | 110 ± 40 ng/mL | 6050 ± 950 ng/mL | 5040 ± 140 ng/mL | COc1ccc(N2CCOCC2)c2sc(NC(=O)N3CCC(C)(O)CC3)nc12 [Tozadenant] | exception; also recorded: Not significant | p<0.01 | p<0.001 | – |
